pIC50: −log10 of the molar value. Structures can show the parent of a compound that is named as a salt.
How the values were obtained:
ErbB2 V777L = ErbB2 V777L (Homo sapiens (Human), UniProt P04626, V777L); test: ErbB enzyme assay (CisBio HTRF-KinEASE-TK), ErbB2 V777L; type: biochemical
Method: In vitro enzyme assays based on CisBio HTRF-KinEASE-TK technology were used to determine compound potencies. […] After another 1 h incubation at ambient temperature, the extent of substrate phosphorylation was determined using a PerkinElmer EnVision multimode plate reader via time-resolved fluorescence dual wavelength detection. The percent of control (POC) was calculated using the ratio of emission at […] to the emission at 620 nm. One hundred POC was determined using DMSO only controls (no test compounds present) and zero POC was determined using pre-quenched controls reactions. A 4-parameter logistic equation was fit to the POC values as a function of the test compound concentration and the IC50 value was determined as the point where the curve crossed 50 POC.

EGFR WT = EGFR WT (Homo sapiens (Human), UniProt P00533); test: ErbB enzyme assay (CisBio HTRF-KinEASE-TK), EGFR WT; type: biochemical; conditions: ATP at Km (25 μM), 1 h incubation
Method in brief: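 HTRF KinEASE-TK kinase reactions ran 1 h at ambient temperature with three-fold serial compound dilutions, then were quenched with Sa-XL665 and TK-Ab-Cryptate. After 1 h more, 655/620 nm time-resolved fluorescence gave percent of control; a 4-parameter logistic fit defined IC50 at 50 POC.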

Sequence of ErbB2 V777L (P04626 23-1255 V777L): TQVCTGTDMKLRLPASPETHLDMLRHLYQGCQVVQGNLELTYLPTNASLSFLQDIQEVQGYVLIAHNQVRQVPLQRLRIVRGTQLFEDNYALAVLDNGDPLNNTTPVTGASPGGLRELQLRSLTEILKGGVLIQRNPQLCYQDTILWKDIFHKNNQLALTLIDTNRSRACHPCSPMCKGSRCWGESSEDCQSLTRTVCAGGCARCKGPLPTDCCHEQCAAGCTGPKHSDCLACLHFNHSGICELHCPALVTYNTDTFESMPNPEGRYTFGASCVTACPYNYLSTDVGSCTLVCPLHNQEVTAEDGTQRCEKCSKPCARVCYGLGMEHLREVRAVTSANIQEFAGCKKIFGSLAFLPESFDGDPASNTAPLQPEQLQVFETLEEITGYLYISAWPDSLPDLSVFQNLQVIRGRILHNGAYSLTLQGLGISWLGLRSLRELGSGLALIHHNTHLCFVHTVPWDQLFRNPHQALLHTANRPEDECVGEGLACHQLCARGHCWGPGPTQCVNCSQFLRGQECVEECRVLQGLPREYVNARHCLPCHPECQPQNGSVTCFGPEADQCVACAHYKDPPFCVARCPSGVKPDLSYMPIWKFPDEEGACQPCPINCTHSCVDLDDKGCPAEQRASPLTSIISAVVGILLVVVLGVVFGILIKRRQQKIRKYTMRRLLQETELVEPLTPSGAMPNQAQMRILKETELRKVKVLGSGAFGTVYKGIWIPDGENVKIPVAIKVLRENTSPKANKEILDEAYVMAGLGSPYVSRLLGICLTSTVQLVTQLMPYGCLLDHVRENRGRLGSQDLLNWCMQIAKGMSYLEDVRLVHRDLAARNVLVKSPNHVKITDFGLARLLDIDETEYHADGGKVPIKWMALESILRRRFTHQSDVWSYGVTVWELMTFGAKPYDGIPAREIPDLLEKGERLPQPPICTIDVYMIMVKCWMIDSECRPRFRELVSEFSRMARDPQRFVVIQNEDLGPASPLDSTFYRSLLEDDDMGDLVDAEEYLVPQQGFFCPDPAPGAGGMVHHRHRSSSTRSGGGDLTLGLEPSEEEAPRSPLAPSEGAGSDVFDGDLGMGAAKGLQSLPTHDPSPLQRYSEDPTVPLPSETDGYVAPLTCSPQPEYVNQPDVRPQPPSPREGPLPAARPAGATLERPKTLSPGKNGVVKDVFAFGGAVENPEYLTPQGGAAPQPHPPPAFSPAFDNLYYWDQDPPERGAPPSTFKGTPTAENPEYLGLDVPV
Sequence of EGFR WT (P00533 25-1210): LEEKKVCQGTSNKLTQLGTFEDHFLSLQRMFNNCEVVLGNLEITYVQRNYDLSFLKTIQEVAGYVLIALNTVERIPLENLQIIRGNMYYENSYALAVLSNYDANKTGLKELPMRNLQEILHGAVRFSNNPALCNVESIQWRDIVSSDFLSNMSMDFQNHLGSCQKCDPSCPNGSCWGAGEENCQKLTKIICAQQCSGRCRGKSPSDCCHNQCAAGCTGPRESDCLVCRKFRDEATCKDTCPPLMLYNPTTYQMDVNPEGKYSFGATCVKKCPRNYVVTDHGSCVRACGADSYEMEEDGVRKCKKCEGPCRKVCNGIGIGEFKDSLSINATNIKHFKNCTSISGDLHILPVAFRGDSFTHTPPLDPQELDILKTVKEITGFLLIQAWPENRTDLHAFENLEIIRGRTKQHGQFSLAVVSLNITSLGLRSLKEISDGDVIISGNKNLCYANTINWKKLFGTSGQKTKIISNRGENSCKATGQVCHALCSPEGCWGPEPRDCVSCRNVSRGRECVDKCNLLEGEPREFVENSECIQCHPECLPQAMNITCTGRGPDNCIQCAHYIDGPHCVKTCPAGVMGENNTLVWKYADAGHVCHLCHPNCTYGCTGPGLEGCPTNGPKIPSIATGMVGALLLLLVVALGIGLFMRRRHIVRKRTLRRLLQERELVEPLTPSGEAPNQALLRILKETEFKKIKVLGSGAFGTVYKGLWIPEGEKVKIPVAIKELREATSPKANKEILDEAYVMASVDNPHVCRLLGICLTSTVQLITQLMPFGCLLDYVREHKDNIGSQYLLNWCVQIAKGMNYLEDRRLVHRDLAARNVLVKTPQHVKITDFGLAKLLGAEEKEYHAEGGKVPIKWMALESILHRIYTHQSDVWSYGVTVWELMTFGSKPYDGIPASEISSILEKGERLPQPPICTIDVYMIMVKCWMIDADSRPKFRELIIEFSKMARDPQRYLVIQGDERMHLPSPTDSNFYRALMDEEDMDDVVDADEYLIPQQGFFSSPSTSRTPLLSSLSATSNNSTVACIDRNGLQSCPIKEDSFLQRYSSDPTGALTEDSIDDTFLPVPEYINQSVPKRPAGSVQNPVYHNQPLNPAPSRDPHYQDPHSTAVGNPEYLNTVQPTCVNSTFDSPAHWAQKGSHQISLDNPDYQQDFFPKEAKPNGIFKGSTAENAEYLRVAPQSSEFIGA

pIC50 (ErbB2 V777L)	pIC50 (EGFR WT)	SMILES
6.30 to 7.00	6.00 to 6.30	C=CC(=O)N1CCN(c2ccc3ncnc(Nc4ccc(Oc5ccc6c(c5)ncn6C(F)F)c(C)c4)c3n2)C[C@@H]1C1CC1 [Compound 278, (S)-1-(2-cyclopropyl-4-(4-((4-((1-(difluoromethyl)-1H-benzo[d]imidazol-5-yl)oxy)-3-methylphenyl)amino)pyrido[3,2-d]pyrimidin-6-yl)piperazin-1-yl)prop-2-en-1-one]
6.30 to 7.00	6.30 to 7.00	C=CC(=O)N1CCC12CN(c1ncc3ncnc(Nc4ccc(Oc5ccc6c(c5)nnn6C)c(C)c4F)c3n1)C2 [Compound 67, 1-(6-(8-((2-fluoro-3-methyl-4-((1-methyl-1H-benzo[d][1,2,3]triazol-5-yl)oxy)phenyl)amino)pyrimido[5,4-d]pyrimidin-2-yl)-1,6-diazaspiro[3.3]heptan-1-yl)prop-2-en-1-one]
6.30 to 7.00	6.00 to 6.30	C=CC(=O)N1CCN(c2ncc3ncnc(Nc4ccc(Oc5ccc6c(c5)nnn6C)c(C)c4)c3n2)C[C@H]1C1CC1 [Compound 196, (R)-1-(2-cyclopropyl-4-(8-((3-methyl-4-((1-methyl-1H-benzo[d][1,2,3]triazol-5-yl)oxy)phenyl)amino)pyrimido[5,4-d]pyrimidin-2-yl)piperazin-1-yl)prop-2-en-1-one]
6.00 to 6.30	6.30 to 7.00	C=CC(=O)N[C@@H]1CCCCN(c2ccc3ncnc(Nc4ccc(Oc5ccc6c(c5)nnn6C)c(C)c4F)c3n2)C1 [Compound 289, (R)-N-(1-(4-((2-fluoro-3-methyl-4-((1-methyl-1H-benzo[d][1,2,3]triazol-5-yl)oxy)phenyl)amino)pyrido[3,2-d]pyrimidin-6-yl)azepan-3-yl)acrylamide]
6.30 to 7.00	6.00 to 6.30	C=CC(=O)N1C2CCC1CN(c1ncc3ncnc(Nc4cc(C)c(Oc5ccc6c(c5)ncn6C(F)F)cc4OC)c3n1)C2 [Compound 40, 1-(3-(8-((4-((1-(difluoromethyl)-1H-benzo[d]imidazol-5-yl)oxy)-2-methoxy-5-methylphenyl)amino)pyrimido[5,4-d]pyrimidin-2-yl)-3,8-diazabicyclo[3.2.1]octan-8-yl)prop-2-en-1-one 2,2,2-trifluoroacetate]
6.30 to 7.00	≤ 6.00	C=CC(=O)N1CCN(c2ccc3ncnc(Nc4ccc(Oc5ccc6c(c5)ncn6C(F)F)c(C)c4F)c3n2)C[C@@H]1C1CC1 [Compound 286, (S)-1-(2-cyclopropyl-4-(4-((4-((1-(difluoromethyl)-1H-benzo[d]imidazol-5-yl)oxy)-2-fluoro-3-methylphenyl)amino)pyrido[3,2-d]pyrimidin-6-yl)piperazin-1-yl)prop-2-en-1-one]
6.30 to 7.00	6.30 to 7.00	C=CC(=O)N1CCN(c2ccc3ncnc(Nc4ccc(Oc5ccc6c(c5)nnn6C)c(C)c4F)c3n2)CC1(C)C [Compound 275, 1-(4-(4-((2-fluoro-3-methyl-4-((1-methyl-1H-benzo[d][1,2,3]triazol-5-yl)oxy)phenyl)amino)pyrido[3,2-d]pyrimidin-6-yl)-2,2-dimethylpiperazin-1-yl)prop-2-en-1-one]
6.30 to 7.00	6.30 to 7.00	C=CC(=O)N1CCN(c2ccc3ncnc(Nc4ccc(Oc5ccc6c(c5)nnn6C(F)F)c(C)c4)c3n2)CC1(C)C [Compound 324, 1-(4-(4-((4-((1-(difluoromethyl)-1H-benzo[d][1,2,3]triazol-5-yl)oxy)-3-methylphenyl)amino)pyrido[3,2-d]pyrimidin-6-yl)-2,2-dimethylpiperazin-1-yl)prop-2-en-1-one]
6.30 to 7.00	6.30 to 7.00	C=CC(=O)N1CCN(c2ccc3ncnc(Nc4ccc(Oc5ccc6c(c5)nnn6C)c(C)c4F)c3n2)C[C@H]1CC [Compound 258, (R)-1-(2-ethyl-4-(4-((2-fluoro-3-methyl-4-((1-methyl-1H-benzo[d][1,2,3]triazol-5-yl)oxy)phenyl)amino)pyrido[3,2-d]pyrimidin-6-yl)piperazin-1-yl)prop-2-en-1-one]

Further lines, the compound ahead of its results:

SMILES	pIC50 (ErbB2 V777L)	pIC50 (EGFR WT)
C=CC(=O)N1CCN(c2ncc3ncnc(Nc4ccc(Oc5cc6nnn(C)c6c(F)c5C)c(C)c4)c3n2)CC1 [Compound 137, 1-(4-(8-((4-((7-fluoro-1,6-dimethyl-1H-benzo[d][1,2,3]triazol-5-yl)oxy)-3-methylphenyl)amino)pyrimido[5,4-d]pyrimidin-2-yl)piperazin-1-yl)prop-2-en-1-one]	6.30 to 7.00	6.30 to 7.00
C=CC(=O)N[C@@H]1CCCCN(c2ncc3ncnc(Nc4ccc(Oc5ccc6c(c5)nnn6C)c(C)c4F)c3n2)C1 [Compound 170, (R)-N-(1-(8-((2-fluoro-3-methyl-4-((1-methyl-1H-benzo[d][1,2,3]triazol-5-yl)oxy)phenyl)amino)pyrimido[5,4-d]pyrimidin-2-yl)azepan-3-yl)acrylamide]	6.30 to 7.00	6.30 to 7.00
C=C(F)C(=O)N1CCN(c2ncc3ncnc(Nc4ccc(Oc5ccc6c(c5)nnn6C)c(C)c4)c3n2)C[C@@H]1C(F)(F)F [Compound 231, (R)-2-fluoro-1l-(4-(8-((3-methyl-4-((1-methyl-1H-benzo[d][1,2,3]triazol-5-yl)oxy)phenyl)amino)pyrimido[5,4-d]pyrimidin-2-yl)-2-(trifluoromethyl)piperazin-1-yl)prop-2-en-1-one]	6.00 to 6.30	6.00 to 6.30
C=CC(=O)N1CCN(c2ccc3ncnc(Nc4cc(C)c(Oc5ccc6c(c5)nnn6C)cc4OC(F)(F)F)c3n2)CC1(C)C [Compound 306, 1-(2,2-dimethyl-4-(4-((5-methyl-4-((1-methyl-1H-benzo[d][1,2,3]triazol-5-yl)oxy)-2-(trifluoromethoxy)phenyl)amino)py-rido[3,2-d]pyrimidin-6-yl)piperazin-1-yl)prop-2-en-1-one]	6.30 to 7.00	6.30 to 7.00
C=CC(=O)N1CCN(c2ncc3ncnc(Nc4ccc(Oc5ccn6nc(C)nc6c5)c(C)c4)c3n2)C[C@H]1C [Compound 139]	6.30 to 7.00	6.30 to 7.00
C=CC(=O)N1C2C=C(c3ccc4ncnc(Nc5ccc(Oc6ccc7c(c6)nnn7C)c(C)c5)c4n3)CC1CC2 (stereo not shown) [Compound 409, 1-(3-(4-((3-methyl-4-((1-methyl-1H-benzo[d][1,2,3]triazol-5-yl)oxy)phenyl)amino)pyrido[3,2-d]pyrimidin-6-yl)-8-azabicyclo[3.2.1]oct-2-en-8-yl)prop-2-en-1-one trifluoroacetate]	7.00 to 7.30	6.30 to 7.00
C=C1CCN([C@H]2CCN(c3ncc4ncnc(Nc5ccc(Oc6ccn7ncnc7c6)c(C)c5)c4n3)C2)C1=O [Compound 239, (S)-1′-(8-((4-([1,2,4]triazolo[1,5-a]pyridin-7-yloxy)-3-methylphenyl)amino)pyrimido[5,4-d]pyrimidin-2-yl)-3-methylene-[1,3′-bipyrrolidin]-2-one]	7.00 to 7.30	6.00 to 6.30
C=CC(=O)NC1CCN(c2ccc3ncnc(Nc4ccc(Oc5ccc6c(c5)nnn6C)c(C)c4)c3n2)CC1 [Compound 304, N-(1-(4-((3-methyl-4-((1-methyl-1H-benzo[d][1,2,3]triazol-5-yl)oxy)phenyl)amino)pyrido[3,2-d]pyrimidin-6-yl)piperidin-4-yl)acrylamide]	6.30 to 7.00	6.30 to 7.00
C=CC(=O)N1C[C@H](N(C)c2ccc3ncnc(Nc4ccc(Oc5ccc6c(c5)nnn6C)c(C)c4)c3n2)C[C@H]1C [Compound 266, 1-((2R,4R)-2-methyl-4-(methyl(4-((3-methyl-4-((1-methyl-1H-benzo[d][1,2,3]triazol-5-yl)oxy)phenyl)amino)pyrido[3,2-d]pyrimidin-6-yl)amino)pyrrolidin-1-yl)prop-2-en-1-one]	7.00 to 7.30	6.30 to 7.00
C=C(COC)C(=O)N1CCN(c2ccc3ncnc(Nc4ccc(Oc5ccc6c(c5)nnn6C)c(C)c4)c3n2)CC1 [Compound 366, 2-(methoxymethyl)-1-(4-(4-((3-methyl-4-((1-methyl-1H-benzo[d][1,2,3]triazol-5-yl)oxy)phenyl)amino)pyrido[3,2-d]pyrimidin-6-yl)piperazin-1-yl)prop-2-en-1-one]	6.00 to 6.30	≤ 6.00
C=CC(=O)NC1CCC(c2ccc3ncnc(Nc4ccc(Oc5ccc6c(c5)nnn6C)c(C)c4)c3n2)CC1 (stereo not shown) [Compound 400, N-(4-(4-((3-methyl-4-((1-methyl-1H-benzo[d][1,2,3]triazol-5-yl)oxy)phenyl)amino)pyrido[3,2-d]pyrimidin-6-yl)cyclohexyl)acrylamide]	6.30 to 7.00	7.00 to 7.30
C=CC(=O)N1CCN(c2ncc3ncnc(Nc4c(OC)cc(Oc5ccc6c(c5)nnn6C)c(C)c4F)c3n2)CC1 [Compound 138, 1-(4-(8-((2-fluoro-6-methoxy-3-methyl-4-((1-methyl-1H-benzo[d][1,2,3]triazol-5-yl)oxy)phenyl)amino)pyrimido[5,4-d]pyrimidin-2-yl)piperazin-1-yl)prop-2-en-1-one]	6.30 to 7.00	6.30 to 7.00
C=CC(=O)N1CCN(c2ncc3ncnc(Nc4ccc(Oc5ccc6c(c5)nnn6C)c(C)c4)c3n2)CC[C@@H]1C [Compound 228, (S)-1-(7-methyl-4-(8-((3-methyl-4-((1-methyl-1H-benzo[d][1,2,3]triazol-5-yl)oxy)phenyl)amino)pyrimido[5,4-d]pyrimidin-2-yl)-1,4-diazepan-1-yl)prop-2-en-1-one]	6.30 to 7.00	6.00 to 6.30
C=C(COC)C(=O)NC1CCN(c2ncc3ncnc(Nc4ccc(Oc5ccc6c(c5)nnn6C)c(C)c4)c3n2)CC1 [Compound 212, 2-(methoxymethyl)-N-(1-(8-((3-methyl-4-((1-methyl-1H-benzo[d][1,2,3]triazol-5-yl)oxy)phenyl)amino)pyrimido [5,4-d]pyrimidin-2-yl)piperidin-4-yl)acrylamide]	7.00 to 7.30	6.30 to 7.00

Source: patent publication US20250129078A1, “ERBB2 INHIBITORS” (Cogent Biosciences, Inc., priority 2023, published 2025)
